Experimental data taken from ChEMBL document CHEMBL2176888, “Structure-activity relationships in human Toll-like receptor 8-active 2,3-diamino-furo[2,3-c]pyridines” (J Med Chem, 2012).
Activity calls are given as the source filed them.

Key:
Format in all cases: functional, cell-based
[1] = target: Toll-like receptor 5 (Homo sapiens) (UniProt O60602); assay: Agonist activity at human TLR5 expressed in HEK293 cells assessed as induction of NF-kappaB activity by measuring extracellular secreted alkaline phosphatase up to 250 uM by HEK-blue reporter gene assay
[2] = target: Toll-like receptor 4 (Homo sapiens) (UniProt O00206); assay: Agonist activity at human TLR4 expressed in HEK293 cells assessed as induction of NF-kappaB activity by measuring extracellular secreted alkaline phosphatase up to 250 uM by HEK-blue reporter gene assay
[3] = target: Toll-like receptor 3 (Homo sapiens) (UniProt O15455); assay: Agonist activity at human TLR3 expressed in HEK293 cells assessed as induction of NF-kappaB activity by measuring extracellular secreted alkaline phosphatase up to 250 uM by HEK-blue reporter gene assay
[4] = target: T1, Toll-like receptor 9 (Homo sapiens) (UniProt Q9NR96); assay: Agonist activity at human TLR9 expressed in HEK293 cells assessed as induction of NF-kappaB activity by measuring extracellular secreted alkaline phosphatase up to 250 uM by HEK-blue reporter gene assay
T1 sequence (whole entry): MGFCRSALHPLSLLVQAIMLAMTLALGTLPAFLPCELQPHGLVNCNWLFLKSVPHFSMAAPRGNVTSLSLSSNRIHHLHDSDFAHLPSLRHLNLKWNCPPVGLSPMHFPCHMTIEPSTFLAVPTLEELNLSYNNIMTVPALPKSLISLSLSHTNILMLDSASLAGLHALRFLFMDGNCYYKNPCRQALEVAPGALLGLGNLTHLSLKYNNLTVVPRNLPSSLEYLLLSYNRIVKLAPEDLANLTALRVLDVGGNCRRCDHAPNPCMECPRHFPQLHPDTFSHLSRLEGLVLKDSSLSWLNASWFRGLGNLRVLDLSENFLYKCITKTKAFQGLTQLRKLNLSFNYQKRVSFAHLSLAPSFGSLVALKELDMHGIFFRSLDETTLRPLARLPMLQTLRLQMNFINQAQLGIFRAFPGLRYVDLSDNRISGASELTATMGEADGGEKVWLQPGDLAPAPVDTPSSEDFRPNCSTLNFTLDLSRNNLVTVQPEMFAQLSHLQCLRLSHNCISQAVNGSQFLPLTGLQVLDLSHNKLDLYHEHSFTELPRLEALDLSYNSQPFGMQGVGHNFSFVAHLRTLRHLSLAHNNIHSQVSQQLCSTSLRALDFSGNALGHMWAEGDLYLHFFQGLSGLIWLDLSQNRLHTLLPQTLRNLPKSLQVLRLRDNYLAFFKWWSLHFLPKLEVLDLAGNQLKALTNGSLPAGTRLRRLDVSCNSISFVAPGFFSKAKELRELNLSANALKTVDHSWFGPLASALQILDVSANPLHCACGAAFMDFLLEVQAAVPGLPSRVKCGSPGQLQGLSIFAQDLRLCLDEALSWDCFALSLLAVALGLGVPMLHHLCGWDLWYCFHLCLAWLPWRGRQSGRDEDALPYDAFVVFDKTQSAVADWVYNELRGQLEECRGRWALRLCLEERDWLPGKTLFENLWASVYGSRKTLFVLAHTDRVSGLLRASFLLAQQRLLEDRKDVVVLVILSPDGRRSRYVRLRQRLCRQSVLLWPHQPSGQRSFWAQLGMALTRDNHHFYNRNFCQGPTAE

[5] = target: T2, Toll-like receptor 7 (Homo sapiens) (UniProt Q9NYK1); assay: Agonist activity at human TLR7 expressed in HEK293 cells assessed as induction of NF-kappaB activity by measuring extracellular secreted alkaline phosphatase up to 250 uM by HEK-blue reporter gene assay
T2 sequence (whole entry): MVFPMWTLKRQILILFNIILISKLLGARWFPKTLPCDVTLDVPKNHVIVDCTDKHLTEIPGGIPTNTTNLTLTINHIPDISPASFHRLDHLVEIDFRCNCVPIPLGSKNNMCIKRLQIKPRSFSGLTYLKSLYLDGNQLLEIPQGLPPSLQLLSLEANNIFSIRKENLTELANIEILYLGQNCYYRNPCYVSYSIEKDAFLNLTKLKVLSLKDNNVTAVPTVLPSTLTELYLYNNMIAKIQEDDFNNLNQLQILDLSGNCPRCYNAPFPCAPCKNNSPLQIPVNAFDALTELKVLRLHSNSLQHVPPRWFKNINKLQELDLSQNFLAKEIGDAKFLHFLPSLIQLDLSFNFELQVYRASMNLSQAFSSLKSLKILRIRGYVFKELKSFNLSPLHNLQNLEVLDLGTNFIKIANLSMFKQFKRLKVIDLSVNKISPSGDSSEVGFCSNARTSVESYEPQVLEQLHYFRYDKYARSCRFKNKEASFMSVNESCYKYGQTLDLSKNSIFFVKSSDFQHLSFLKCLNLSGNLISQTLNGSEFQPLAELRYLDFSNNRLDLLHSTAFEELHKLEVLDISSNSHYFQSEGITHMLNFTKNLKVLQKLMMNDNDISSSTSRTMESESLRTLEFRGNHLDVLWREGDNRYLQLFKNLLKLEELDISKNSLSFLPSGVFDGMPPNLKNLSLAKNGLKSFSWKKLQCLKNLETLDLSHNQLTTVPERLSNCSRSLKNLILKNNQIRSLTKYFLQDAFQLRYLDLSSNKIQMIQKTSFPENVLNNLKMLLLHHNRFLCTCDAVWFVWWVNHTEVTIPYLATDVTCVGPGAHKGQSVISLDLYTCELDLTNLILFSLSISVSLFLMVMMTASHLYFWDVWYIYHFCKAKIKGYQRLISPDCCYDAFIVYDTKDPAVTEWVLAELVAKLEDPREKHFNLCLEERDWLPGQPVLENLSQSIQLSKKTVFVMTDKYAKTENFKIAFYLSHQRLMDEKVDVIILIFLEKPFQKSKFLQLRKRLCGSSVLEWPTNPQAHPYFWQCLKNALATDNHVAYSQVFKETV

[6] = target: T3, Toll-like receptor 8 (Homo sapiens) (UniProt Q9NR97); assay: Agonist activity at human TLR8 expressed in HEK293 cells assessed as induction of NF-kappaB activity by measuring extracellular secreted alkaline phosphatase up to 250 uM by HEK-blue reporter gene assay
T3 sequence (whole entry): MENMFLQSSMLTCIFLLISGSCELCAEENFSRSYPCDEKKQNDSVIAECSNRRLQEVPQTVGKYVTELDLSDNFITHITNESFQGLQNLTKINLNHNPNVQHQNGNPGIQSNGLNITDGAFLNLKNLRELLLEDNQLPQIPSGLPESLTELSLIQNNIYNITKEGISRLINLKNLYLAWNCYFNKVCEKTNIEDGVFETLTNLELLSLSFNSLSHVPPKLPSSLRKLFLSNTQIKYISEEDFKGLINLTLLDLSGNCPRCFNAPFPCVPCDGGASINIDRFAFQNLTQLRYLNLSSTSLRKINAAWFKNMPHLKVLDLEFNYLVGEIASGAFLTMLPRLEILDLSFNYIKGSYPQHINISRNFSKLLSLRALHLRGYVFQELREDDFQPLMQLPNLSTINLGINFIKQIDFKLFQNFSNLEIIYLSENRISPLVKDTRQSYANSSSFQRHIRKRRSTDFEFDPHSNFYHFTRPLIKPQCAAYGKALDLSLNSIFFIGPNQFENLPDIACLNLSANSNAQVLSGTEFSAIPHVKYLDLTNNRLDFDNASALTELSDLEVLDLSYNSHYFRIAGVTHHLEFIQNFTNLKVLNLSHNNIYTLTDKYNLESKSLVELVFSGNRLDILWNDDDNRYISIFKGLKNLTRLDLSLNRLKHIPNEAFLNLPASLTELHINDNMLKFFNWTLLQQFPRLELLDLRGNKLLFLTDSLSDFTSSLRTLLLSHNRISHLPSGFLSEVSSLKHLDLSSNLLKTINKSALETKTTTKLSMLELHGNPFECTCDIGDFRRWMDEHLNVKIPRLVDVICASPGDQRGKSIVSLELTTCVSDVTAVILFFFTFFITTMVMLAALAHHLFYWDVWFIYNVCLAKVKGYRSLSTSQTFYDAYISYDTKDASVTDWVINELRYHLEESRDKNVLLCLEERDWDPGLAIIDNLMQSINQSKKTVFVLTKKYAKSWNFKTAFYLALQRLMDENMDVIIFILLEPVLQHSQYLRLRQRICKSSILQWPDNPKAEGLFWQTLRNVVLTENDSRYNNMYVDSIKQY

Measured: Activity

Toll-like receptor 4 (Homo sapiens), sequence (O00206 whole entry): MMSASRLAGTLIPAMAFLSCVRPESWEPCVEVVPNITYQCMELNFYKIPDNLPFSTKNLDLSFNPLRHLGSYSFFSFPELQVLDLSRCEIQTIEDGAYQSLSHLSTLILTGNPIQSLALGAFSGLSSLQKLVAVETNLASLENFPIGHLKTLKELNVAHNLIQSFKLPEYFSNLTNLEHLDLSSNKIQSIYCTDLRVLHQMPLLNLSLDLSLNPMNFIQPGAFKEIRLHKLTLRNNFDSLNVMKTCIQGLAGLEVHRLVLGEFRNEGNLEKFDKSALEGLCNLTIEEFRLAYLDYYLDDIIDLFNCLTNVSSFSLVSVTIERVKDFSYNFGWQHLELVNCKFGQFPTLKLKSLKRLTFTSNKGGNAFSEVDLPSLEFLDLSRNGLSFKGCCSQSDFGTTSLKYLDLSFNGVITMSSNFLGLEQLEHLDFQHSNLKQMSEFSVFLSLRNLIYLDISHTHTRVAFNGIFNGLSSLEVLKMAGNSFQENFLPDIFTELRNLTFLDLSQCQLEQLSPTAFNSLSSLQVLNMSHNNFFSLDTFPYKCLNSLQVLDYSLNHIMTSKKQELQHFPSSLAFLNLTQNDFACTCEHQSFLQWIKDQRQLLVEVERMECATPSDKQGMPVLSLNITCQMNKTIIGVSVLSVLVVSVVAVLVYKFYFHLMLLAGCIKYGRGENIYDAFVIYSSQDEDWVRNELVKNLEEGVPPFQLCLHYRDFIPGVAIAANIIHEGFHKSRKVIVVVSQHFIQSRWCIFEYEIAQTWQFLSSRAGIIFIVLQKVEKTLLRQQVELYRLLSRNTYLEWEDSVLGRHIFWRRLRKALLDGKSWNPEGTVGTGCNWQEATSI
Toll-like receptor 5 (Homo sapiens), sequence (O60602 whole entry): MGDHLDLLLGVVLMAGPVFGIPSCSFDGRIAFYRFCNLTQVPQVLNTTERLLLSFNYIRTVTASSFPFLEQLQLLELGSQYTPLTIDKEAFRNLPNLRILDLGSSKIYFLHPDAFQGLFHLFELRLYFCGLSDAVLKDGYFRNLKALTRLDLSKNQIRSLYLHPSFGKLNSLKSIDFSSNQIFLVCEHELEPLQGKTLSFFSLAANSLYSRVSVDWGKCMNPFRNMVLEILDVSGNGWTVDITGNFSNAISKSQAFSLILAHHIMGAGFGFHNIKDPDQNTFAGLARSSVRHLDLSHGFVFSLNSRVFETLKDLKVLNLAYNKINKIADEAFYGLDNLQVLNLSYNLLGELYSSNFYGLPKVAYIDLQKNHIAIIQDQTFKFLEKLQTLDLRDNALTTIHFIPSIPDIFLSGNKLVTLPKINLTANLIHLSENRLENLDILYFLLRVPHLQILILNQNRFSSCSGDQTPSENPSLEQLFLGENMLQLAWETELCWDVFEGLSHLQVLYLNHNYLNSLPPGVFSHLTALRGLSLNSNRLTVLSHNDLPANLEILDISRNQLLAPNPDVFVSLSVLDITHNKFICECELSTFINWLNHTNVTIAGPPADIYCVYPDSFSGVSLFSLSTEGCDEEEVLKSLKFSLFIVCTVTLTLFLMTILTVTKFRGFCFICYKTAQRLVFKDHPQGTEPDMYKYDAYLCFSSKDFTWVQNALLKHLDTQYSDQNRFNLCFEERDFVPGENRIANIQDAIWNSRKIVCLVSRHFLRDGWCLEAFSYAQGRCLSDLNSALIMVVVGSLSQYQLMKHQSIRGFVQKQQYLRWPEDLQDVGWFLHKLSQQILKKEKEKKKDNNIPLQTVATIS
Toll-like receptor 3 (Homo sapiens), sequence (O15455 whole entry): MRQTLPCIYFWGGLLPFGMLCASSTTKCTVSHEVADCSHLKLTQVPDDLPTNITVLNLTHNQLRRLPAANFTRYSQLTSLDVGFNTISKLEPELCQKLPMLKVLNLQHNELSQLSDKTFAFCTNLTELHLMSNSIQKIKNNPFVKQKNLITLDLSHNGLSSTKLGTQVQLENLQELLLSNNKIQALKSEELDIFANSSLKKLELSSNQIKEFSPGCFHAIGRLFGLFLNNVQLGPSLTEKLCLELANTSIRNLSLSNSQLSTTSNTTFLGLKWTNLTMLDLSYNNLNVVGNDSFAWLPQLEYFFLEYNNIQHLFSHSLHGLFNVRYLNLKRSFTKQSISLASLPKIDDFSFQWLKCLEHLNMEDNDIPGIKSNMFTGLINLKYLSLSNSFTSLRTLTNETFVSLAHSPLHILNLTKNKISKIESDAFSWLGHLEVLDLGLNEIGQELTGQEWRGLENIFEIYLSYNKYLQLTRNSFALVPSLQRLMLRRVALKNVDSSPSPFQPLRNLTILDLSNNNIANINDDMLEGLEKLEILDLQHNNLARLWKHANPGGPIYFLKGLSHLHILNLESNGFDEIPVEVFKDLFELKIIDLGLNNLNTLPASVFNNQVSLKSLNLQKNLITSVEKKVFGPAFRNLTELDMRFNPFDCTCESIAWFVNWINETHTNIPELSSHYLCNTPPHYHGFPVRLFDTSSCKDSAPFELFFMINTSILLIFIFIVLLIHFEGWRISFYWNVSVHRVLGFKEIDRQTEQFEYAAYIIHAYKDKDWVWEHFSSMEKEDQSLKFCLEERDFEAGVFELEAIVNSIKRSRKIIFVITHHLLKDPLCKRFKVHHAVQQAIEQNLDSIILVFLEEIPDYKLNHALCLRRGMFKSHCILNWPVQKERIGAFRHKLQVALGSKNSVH

Oc1ccccc1-c1nc2cnccn2c1NCc1ccccc1
inactive: [1] | [2] | [3] | [4] | [5] | [6]

Nc1nccn2c(NC3CCCCC3)c(-c3ccc(-c4ccccc4)cc3)nc12
inactive: [1] | [2] | [3] | [4] | [5] | [6]

CC(C)(C)Nc1c(-c2ccccc2)nc2cnccn12
inactive: [1] | [2] | [3] | [4] | [5] | [6]

c1ccc(-c2nc3ccccn3c2NC2CCCCC2)cc1
inactive: [1] | [2] | [3] | [4] | [5] | [6]

c1ccc(CNc2c(-c3ccncc3)nc3ccccn23)cc1
inactive: [1] | [2] | [3] | [4] | [5] | [6]

CC(C)(C)Nc1c(-c2ccncc2)nc2cnccn12
inactive: [1] | [2] | [3] | [4] | [5] | [6]

Nc1nccn2c(NC3CCCCC3)c(-c3ccccc3)nc12
inactive: [1] | [2] | [3] | [4] | [5] | [6]

Oc1ccccc1-c1nc2ccccn2c1NC1CCCCC1
inactive: [1] | [2] | [3] | [4] | [5] | [6]

c1ccc(CNc2c(-c3ccncc3)nc3cnccn23)cc1
inactive: [1] | [2] | [3] | [4] | [5] | [6]

Oc1ccccc1-c1nc2cnccn2c1NC1CCCCC1
inactive: [1] | [2] | [3] | [4] | [5] | [6]

c1ccc(-c2nc3cnccn3c2NC2CCCCC2)cc1
inactive: [1] | [2] | [3] | [4] | [5] | [6]

c1ccc(CNc2c(-c3ccccc3)nc3cnccn23)cc1
inactive: [1] | [2] | [3] | [4] | [5] | [6]

c1ccn2c(NC3CCCCC3)c(-c3ccncc3)nc2c1
inactive: [1] | [2] | [3] | [4] | [5] | [6]

CCCCc1nc2c(N)nccn2c1NCc1ccccc1
inactive: [1] | [2] | [3] | [4] | [5] | [6]
